Measured values from patent publication US8999995B2, “Isotopically enriched arylsulfonamide CCR3 antagonists” (Axikin Pharmaceuticals, Inc., priority 2010, dated 2015).
Where two headings read alike, the source gives them in different places.

Tests used:
CCR3 receptor = target: T1, CCR3 receptor (UniProt P51677); assay: CCR3 receptor binding assay ([125I]-labeled human eotaxin/CCL11 displacement on cells); conditions: 0.1 nM [125I]-labeled human eotaxin/CCL11, 60 min at room temperature
T1 sequence (P51677 1-355): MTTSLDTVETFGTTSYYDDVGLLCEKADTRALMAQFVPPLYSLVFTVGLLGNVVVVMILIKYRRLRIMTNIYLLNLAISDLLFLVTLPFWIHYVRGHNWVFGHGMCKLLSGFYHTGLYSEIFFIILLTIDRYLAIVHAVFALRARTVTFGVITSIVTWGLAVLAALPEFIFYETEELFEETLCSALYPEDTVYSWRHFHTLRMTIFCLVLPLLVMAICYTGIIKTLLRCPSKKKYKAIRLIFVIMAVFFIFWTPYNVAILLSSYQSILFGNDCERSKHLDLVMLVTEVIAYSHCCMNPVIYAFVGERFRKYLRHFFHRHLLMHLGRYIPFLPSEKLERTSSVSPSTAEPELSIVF
Protocol: Cells were washed once with PBS and resuspended in a binding buffer (25 mM HEPES pH 7.6, 5 mM MgCl2, 1 mM CaCl2, 0.5% BSA, 0.1% NaN3). […] of cell suspension (2×10^5 cells/well) and 0.1 nM [^125I]-labeled human eotaxin/CCL11 (2000 Ci/mmol specific activity) were mixed in a 96-well U-bottom polypropylene plate, and incubated for 60 min at room temperature for the binding reaction. The cell suspension was then transferred to a filtration plate (#MAFB, Millipore), and washed 3 times with the binding buffer containing 0.5 M NaCl, scintillant added, and the radioactivity was counted on a TopCount (Packard). For the determination of non-specific binding, the cell suspension and [^125I]-labeled human eotaxin/CCL11 were incubated in the presence of 500 nM of unlabeled human eotaxin/CCL11. See, Iino et al., “Molecular cloning and functional characterization of cynomolgus monkey (Macaca fascicularis) CC chemokine receptor, CCR3,” Cytokine 2002, 19, 276-286.

[1] = Pharmacokinetic studies in male CD1 mice (PO and IV dosing, plasma by HPLC and MS); assay type: in vivo, mouse; conditions: for Cmax / AUC(0-inf): male, CD1, mouse
Protocol: Pharmacokinetic properties of compounds A1 and A2 were determined using 144 male CD1 mice, each approximately 25 g. Animals were acclimated for 2-3 days prior to study. Body weights of animals were measured for randomization. Animals were randomized into groups of 3 mice by body weights. Compounds A1 and A2 were provided at 2 mg/mL for oral dosing and 0.2 mg/mL for intravenous dosing. Each mouse received 100 μL of a test compound (or a body weight justified dose (5 mL/kg) via PO or IV on dosing days. Approximately 1.0 mL of the whole blood was collected for each animal via cardiac puncture at each time points. The blood was collected into lithium heparin tubes, processed to plasma, and snap frozen in dry ice. Plasma samples were stored at −80° C. before analysis. The samples were further analyzed by HPLC and MS.

Q: With `[2H]c1c([2H])c(Sc2cc(Cl)cc(Cl)c2)c(S(=O)(=O)N2CCN(C3CCCC3)CC2)c([2H])c1C#N` [Compound A1] as the molecule, how does the Ki (CCR3 receptor) read?
A: The Ki was 5.4 nM.

Q: And the Cmax ([1]; oral, 10 mg/kg, 2 mg/mL oral, 0.2 mg/mL intravenous dosing, 5 mL/kg, read-out: Cmax)?
A: The Cmax was 149 ng/mL.

Q: What about the AUC(0-inf) ([1]; oral, 10 mg/kg, AUCinf,norm, dose-normalised, heading: AUCinf,norm) of the same molecule?
A: The AUC(0-inf) was 106 ng·h/mL.

Q: And the Cmax ([1]; oral, 10 mg/kg, dose-normalised, read-out: Cmax,norm)?
A: Its Cmax is 14.9 ng/mL.

Q: What about the AUC(0-inf) ([1]; oral, 10 mg/kg, read-out: AUCinf) of the same molecule?
A: Its AUC(0-inf) is 1060 ng·h/mL.

Q: And the MRT ([1]; mouse)?
A: The MRT was 6.9 h.

Q: And the half-life ([1]; mouse)?
A: The half-life was 2.51 h.

Q: And the bioavailability ([1]; mouse, PO versus IV)?
A: The bioavailability was 31.8%.

Q: What about the Tmax ([1]; mouse, oral, 10 mg/kg) of the same molecule?
A: The Tmax was 0.5 h.
